From patent US20020131996A1, “Methods and compositions for blocking microbial adherence to eukaryotic cells” (priority 2001, published 2002)

Tests used:
Type in all cases: in vivo, human
[1] = tested on: bacteria adherent to gingival epithelial cells; assay: Microbial adherence to gingival epithelial cells in volunteers with low grade gingivitis (Giemsa-stained gingival scrapings)
Source text: In this example isoleucine was applied as a pure crystalline powder directly to the gums. The individuals were normal human volunteers. Each individual had clinically evident low grade gingivitis, as determined by the puffiness of the gingival margin and a history of some bleeding during normal dental brushing. Oral health care comprised twice daily flossing and dental brushing with a non-medicated toothpaste. No oral antiseptic was used. The individuals were not taking antibiotics. Isoleucine was applied by application of powder on the fingertip to the outer and inner gum margins of the upper and lower jaws. The entirety of the gingival surface was covered manually, twice daily. The AM application was performed following breakfast, immediately after brushing. The PM application was conducted prior to retiring for sleep.
Gingival surface was gently scrapped with the side of a rectangular glass cover slip and the material described was applied to a glass microscope slide and air-dried. The slide was stained in concentrated Giemsa stain for 1 min, then destained in water for 5 min. The slide was then air-dried and mounted with a cover slip cemented with Permount. Slides were examined by light microscopy at 100×and 400×magnification. Under these staining conditions bacteria were clearly visualized as dark blue particles against the pale gray epithelial cells.
Gingival scrapings were taken in the morning prior to normal oral care and prior to eating. Prior to scraping, the subject rinsed the mouth with a cup of water to wash free particulate matter, unattached cells, and bacteria.
Scrapings were taken 3 days and 1 day prior to isoleucine administration and 1, 3, 5, and 7 days during isoleucine application. […] The bacteria adherent were represented by several different species, distinguished by morphology. […] At least 200 bacteria were counted on the average on each cell.

[2] = tested on: infectious diarrhea (diarrheal agent not known); assay: Treatment of infectious diarrhea with oral isoleucine solution
Protocol: In this example isoleucine was administered to treat infectious diarrhea. In this example three individuals were naturally innoculated by a common agent. The nature of the diarrheal agent is not known. The duration of diarrhea was consistent with an infectious etiology. Isoleucine was utilized based on the hypothesis that reduction in microbial adherence would likely limit the continued re-infection of the gut wall by the agent, and/or prevent attachment of opportunistic commensal organisms.
Three members of a family traveling in the Middle East (MZ, BZ, JZ) contracted watery diarrhea, associated with food intolerance, following a meal they shared at a restaurant. Each individual had been in excellent health without prior history of GI complaints. All were unmedicated, including aspirin or antihistamines. […] Diarrhea was watery, without gross blood, minimal mucous, slight fever with chills, no nausea, and persistence of hunger. Peristalsis was vigorous and increased by ingestion of food. Each individual was placed on a diet restricted to clear liquids (juices and soda), digestible carbohydrates (bread, rice, candy). No medications were administered.
Six days after ingestion of the diarrheal agent, one individual was begun on oral isoleucine (ILE) therapy, while the other two continued on restricted diets. ILE (#E-2025 Bachem, lot 511191) was dissolved in distilled water to 0.001%. One glass of ILE solution (about 250 ml) was consumed every several hours. A total of about 4 liters was consumed over {fraction (3 1/2)}days. A reduction in stool frequency was noted within 12 hours of initiation of ILE therapy.

[3] = tested on: irritable bowel syndrome (IBS); assay: Amelioration of irritable bowel syndrome with isoleucine in yogurt
Protocol: In this example isoleucine was administered to individuals who experienced irritable bowel syndrome (IBS). IBS is a loosely defined condition associated with bowel discomfort including abdominal bloating, nausea, pain, and a sense of incomplete bowel movements. The etiology underlying IBS is unknown. It is our hypothesis that IBS results from adherence of certain “pathogenic” commensal organisms to the epithelial lining of certain segments of the GI tract, resulting in disturbance of normal host-bacteria relationships. […] Two women, each in their mid-50's, presented with a history of IBS of over 20 years, in each case. In each, IBS was characterized by a sense of bloating experienced after eating cooked or raw vegetables, fruits, and meat. Each individual experienced urgency to move her bowels several times a day to an extent that often awakened the individuals from sleep. Bloating was accompanied by abdominal discomfort, described as mild cramps. Individuals felt “gassy” most of the day. Each individual was given isoleucine, 1 tsp, twice a day, each dose mixed in ½cup of yogurt. The yogurt was included to promote reinoculation of the GI tract with probiotic “good” bacteria. In each case, it was known from previous experience that yogurt itself had little effect on the IBS experienced by these individuals. Within 2 days of isoleucine administration, bloating, urgency to defecate, and gassiness had disappeared. Both individuals described the state of their bowel function as “normal”, for the first time in 20 years. […] Each was then withdrawn from isoleucine, and provided yogurt unsupplemented with isoleucine. Within about 2 days both women recorded a reappearance of the former symptoms of IBS.

bacterial vaginosis = assay: Amelioration of bacterial vaginosis with isoleucine powder applied in the vagina
Protocol: In this example isoleucine was administered locally to the vagina to treat the symptoms of bacterial vaginosis. By inhibiting the adherence of bacteria to the wall of the vagina, microbial growth, inflammation, and associated signs of malodorous discharge and symptoms such as pruritis can be treated. A person, with a normal menstrual cycle and in excellent health, experienced vaginal irritation and malodorous discharge associated with their cycle, generally beginning several days prior to the onset of their period. Isoleucine was self-administered as a powder locally within the vaginal cavity digitally, twice a day. Within 2 days symptoms of vaginosis disappeared. Isoleucine therapy was continued for several days following termination of menstrual discharge, and then stopped. […] Isoleucine was again administered during the following months, cycled as described initially.

[4] = Day 1 of isoleucine powder applied to gums twice daily
[5] = Day 3 of isoleucine powder applied to gums twice daily
[6] = Day 7 of isoleucine powder applied to gums twice daily

## CC[C@H](C)[C@H](N)C(=O)O [isoleucine]
[1]; Day 1 following initiation of isoleucine application
  Change in number of epithelial cells covered with a dense coat of bacteria: little change
[1]; [4]
  Gingival epithelial cells with 0 Bacteria: 0 % cells
  Gingival epithelial cells with 1-10 Bacteria: 10 % cells
  Gingival epithelial cells with 10-100 Bacteria: 10 % cells
  Gingival epithelial cells with Contiguous lawn of bacteria: 80 % cells
[1]; Day 3
  Adherent bacteria in gingival smears: dramatic reduction
  Microcolonies (contiguous groupings of greater than 4 organisms) on cells: Few
  Neutrophils in gingival smear (sign of inflammation): No neutrophils were evident
  Total adherent bacteria per cell (most cells): < 100
[1]; Day 3, of 100 cells examined
  Cells fully covered with bacteria, of 100 cells examined: 40
[1]; [5]
  Gingival epithelial cells with 0 Bacteria: 15 % cells
  Gingival epithelial cells with 1-10 Bacteria: 15 % cells
  Gingival epithelial cells with 10-100 Bacteria: 30 % cells
  Gingival epithelial cells with Contiguous lawn of bacteria: 40 % cells
[1]; Day 7
  Breath as described by an examiner in the AM prior to oral hygiene: free of odor
[1]; [6]
  Gingival epithelial cells with 0 Bacteria: 80 % cells
  Gingival epithelial cells with 1-10 Bacteria: 15 % cells
  Gingival epithelial cells with 10-100 Bacteria: 0 % cells
  Gingival epithelial cells with Contiguous lawn of bacteria (fully covered): 5 % cells
[2]; MZ versus two untreated family members (BZ, JZ)
  Shortening of the duration of diarrhea: approximately three
[2]; individual, 3rd day
  Stools passed on the 3rd day of ILE therapy: no stools were passed
[2]; individual, by the 3rd day
  Food tolerance: cheese and chicken tolerated
[2]; individual, day 4
  Stool by day 4 following ILE treatment: a normal stool was passed
[2]; one individual, 0.001% ILE in distilled water, oral, begun six days after ingestion of agent
  Time to reduction in stool frequency after initiation of ILE therapy: ≤ 12 h
[3]; maintained for 1 month
  Response during maintenance on isoleucine: consistent response
[3]; two women on isoleucine in yogurt
  State of bowel function as described by the individuals: normal
[3]; two women, isoleucine 1 tsp twice a day in 1/2 cup yogurt
  Time to disappearance of bloating, urgency to defecate, and gassiness: ≤ 2 days
[3]; yogurt unsupplemented with isoleucine
  Time to reappearance of former IBS symptoms after withdrawal from isoleucine: about 2 days
Bacterial vaginosis; after cessation
  Symptoms following cessation of isoleucine administration: remained symptom free
Bacterial vaginosis; cycled administration during following months
  Outcome of chronic vaginosis based on symptoms and signs: effectively cured
Bacterial vaginosis; one person, powder in the vaginal cavity twice a day
  Time to disappearance of symptoms of vaginosis: ≤ 2 days
